Measurements published in patent publication US20210403567A1, “METHODS OF TREATING CERVICAL CANCER BY ADMINISTERING A PD-1 INHIBITOR” (priority 2020, published 2021).
Marks after values point to notes of the source that are not given here.

System: recurrent or metastatic cervical cancer
Experiment: Phase 3 trial, cemiplimab versus IC chemotherapy: quality of life, EORTC QLQ-C30 (GHS/QoL, functioning and symptom scales), MMRM LS mean change from baseline
Format: in vivo, human
Settings: for Overall difference in LS mean change from baseline (95% CI), GHS/QoL / Overall difference in LS mean change from baseline (95% CI), Physical functioning / Overall difference in LS mean change from baseline (95% CI), Role functioning: EORTC QLQ-C30, positive numbers favor cemiplimab; for Overall difference in LS mean change from baseline (95% CI), GHS/QoL / Overall difference in LS mean change from baseline (95% CI), Physical functioning / Overall difference in LS mean change from baseline (95% CI), Role functioning / Overall difference in LS mean change from baseline (95% CI), Appetite loss / Overall difference in LS mean change from baseline (95% CI), Fatigue / Overall difference in LS mean change from baseline (95% CI), Pain: cemiplimab minus chemotherapy; for Overall difference in LS mean change from baseline (95% CI), Appetite loss / Overall difference in LS mean change from baseline (95% CI), Fatigue / Overall difference in LS mean change from baseline (95% CI), Pain: EORTC QLQ-C30 symptom scale, negative numbers favor cemiplimab
Experimental: QOL is measured by the EORTC QLQ-C30.
Quality of Life Questionnaires: Patient-reported outcomes are measured using the validated patient self-administered EORTC QLQ-C30 questionnaire. Patients are asked to complete these questionnaires prior to any study procedures being performed at a given study visit (during the on-study/treatment and follow-up periods).
QoL: Longitudinal change from baseline at each PRO assessment in the GHS/QoL and PF scales was analyzed using a mixed model with repeated measures (MMRM). Higher scores on these scales indicate better health status/function. […] The model generated least squares (LS) mean estimates, standard errors, 95% CIs and p-values (where applicable) for mean changes from baseline on each PRO assessment.
At baseline and Day 1 of each treatment cycle (up to 16), patients were administered the EORTC QLQ-030. Mixed-effects repeated measures models estimated least squares (LS) mean change from baseline across all scales. Responder analyses determined the proportions with clinically meaningful (using 10-point threshold) improvement or deterioration, or stability on QLQ-030.

[1] = SCC patients, Overall Across Cycles

Substance: cemiplimab
- Overall difference in LS mean change from baseline (95% CI), GHS/QoL (AC (post-hoc)): 2.0 (−5.4; 9.3)
- Overall difference in LS mean change from baseline (95% CI), Physical functioning (AC (post-hoc)): 2.6 (−4.3; 9.5)
- Overall difference in LS mean change from baseline (95% CI), Role functioning (AC (post-hoc)): 8.3 (−0.0; 16.6)
- Overall difference in LS mean change from baseline (95% CI), GHS/QoL (Overall population): 7.8 (3.3; 12.3)*
- Overall difference in LS mean change from baseline (95% CI), Physical functioning (Overall population): 8.3 (4.3; 12.2)*
- Overall difference in LS mean change from baseline (95% CI), Role functioning (Overall population): 13.1 (8.3; 17.9)^‡
- Overall difference in LS mean change from baseline (95% CI), GHS/QoL (SCC): 8.5 (3.8; 13.2)^†
- Overall difference in LS mean change from baseline (95% CI), Physical functioning (SCC): 8.4 (4.1; 12.6)^†
- Overall difference in LS mean change from baseline (95% CI), Role functioning (SCC): 11.4 (6.3; 16.6)^‡
- Overall difference in LS mean change from baseline (95% CI), Appetite loss (AC (post-hoc)): −5.9 (−19.8; 2.4)
- Overall difference in LS mean change from baseline (95% CI), Fatigue (AC (post-hoc)): −5.9 (−13.9; 2.2)
- Overall difference in LS mean change from baseline (95% CI), Pain (AC (post-hoc)): −7.6 (−17.1; 1.9)
- Overall difference in LS mean change from baseline (95% CI), Appetite loss (Overall population): −11.3 (−16.6; −6.0)^‡
- Overall difference in LS mean change from baseline (95% CI), Fatigue (Overall population): −9.1 (−14.1; −4.0)^‡
- Overall difference in LS mean change from baseline (95% CI), Pain (Overall population): −10.2 (−16.2; −4.3)^‡
- Overall difference in LS mean change from baseline (95% CI), Appetite loss (SCC): −10.9 (−16.6; −5.2)^‡
- Overall difference in LS mean change from baseline (95% CI), Fatigue (SCC): −8.6 (−14.0; −3.3)^‡
- Overall difference in LS mean change from baseline (95% CI), Pain (SCC): −10.4 (−16.9; −3.8)^‡
- Difference in LS mean change, Cemiplimab versus Chemotherapy, GHS/QoL (SCC patients, C2D1): 4.14
- Difference in LS mean change, Cemiplimab versus Chemotherapy, Physical Functioning (SCC patients, C2D1): 4.09
- LS mean change from baseline, EORTC QLQ-C30 GHS/QoL (SCC patients, C2D1): −2.02
- LS mean change from baseline, EORTC QLQ-C30 Physical Functioning (SCC patients, C2D1): −1.82
- Difference in LS mean change, Cemiplimab versus Chemotherapy, GHS/QoL (SCC patients, C3D1): 9.41
- Difference in LS mean change, Cemiplimab versus Chemotherapy, Physical Functioning (SCC patients, C3D1): 7.33
- LS mean change from baseline, EORTC QLQ-C30 GHS/QoL (SCC patients, C3D1): 1.18
- LS mean change from baseline, EORTC QLQ-C30 Physical Functioning (SCC patients, C3D1): 2.10
- Difference in LS mean change, Cemiplimab versus Chemotherapy, GHS/QoL (SCC patients, C4D1): 12.36
- Difference in LS mean change, Cemiplimab versus Chemotherapy, Physical Functioning (SCC patients, C4D1): 10.41
- LS mean change from baseline, EORTC QLQ-C30 GHS/QoL (SCC patients, C4D1): 5.15
- LS mean change from baseline, EORTC QLQ-C30 Physical Functioning (SCC patients, C4D1): 5.21
- Difference in LS mean change, Cemiplimab versus Chemotherapy, GHS/QoL (SCC patients, C5D1): 6.94
- Difference in LS mean change, Cemiplimab versus Chemotherapy, Physical Functioning (SCC patients, C5D1): 6.86
- LS mean change from baseline, EORTC QLQ-C30 GHS/QoL (SCC patients, C5D1): 0.85
- LS mean change from baseline, EORTC QLQ-C30 Physical Functioning (SCC patients, C5D1): −0.17
- Difference in LS mean change, Cemiplimab versus Chemotherapy, GHS/QoL (SCC patients, C6D1): 6.83
- Difference in LS mean change, Cemiplimab versus Chemotherapy, Physical Functioning (SCC patients, C6D1): 7.11
- LS mean change from baseline, EORTC QLQ-C30 GHS/QoL (SCC patients, C6D1): −0.17
- LS mean change from baseline, EORTC QLQ-C30 Physical Functioning (SCC patients, C6D1): 0.82
- Difference in LS mean change, Cemiplimab versus Chemotherapy, GHS/QoL (SCC patients, C7D1): 11.25
- Difference in LS mean change, Cemiplimab versus Chemotherapy, Physical Functioning (SCC patients, C7D1): 14.30
- LS mean change from baseline, EORTC QLQ-C30 GHS/QoL (SCC patients, C7D1): 2.09
- LS mean change from baseline, EORTC QLQ-C30 Physical Functioning (SCC patients, C7D1): −0.07
- Difference in LS mean change, Cemiplimab versus Chemotherapy, GHS/QoL [1]: 8.49
- Difference in LS mean change, Cemiplimab versus Chemotherapy, Physical Functioning [1]: 8.35
- LS mean change from baseline, EORTC QLQ-C30 GHS/QoL [1]: 1.18
- LS mean change from baseline, EORTC QLQ-C30 Physical Functioning [1]: 1.01
- Difference in LS mean change, Cemiplimab versus Chemotherapy, GHS/QoL (overall population, C2D1): 3.25
- LS mean change from baseline, EORTC QLQ-C30 GHS/QoL (overall population, C2D1): −1.03
- LS mean change from baseline, EORTC QLQ-C30 Physical Functioning (overall population, C2D1): −2.41
- Difference in LS mean change, Cemiplimab versus Chemotherapy, GHS/QoL (overall population, C3D1): 7.41
- Difference in LS mean change, Cemiplimab versus Chemotherapy, Physical Functioning (overall population, C3D1): 6.02
- LS mean change from baseline, EORTC QLQ-C30 GHS/QoL (overall population, C3D1): 1.19
- LS mean change from baseline, EORTC QLQ-C30 Physical Functioning (overall population, C3D1): 0.49
- Difference in LS mean change, Cemiplimab versus Chemotherapy, GHS/QoL (overall population, C4D1): 10.55
- Difference in LS mean change, Cemiplimab versus Chemotherapy, Physical Functioning (overall population, C4D1): 932
- LS mean change from baseline, EORTC QLQ-C30 GHS/QoL (overall population, C4D1): 4.47
- LS mean change from baseline, EORTC QLQ-C30 Physical Functioning (overall population, C4D1): 2.38
- Difference in LS mean change, Cemiplimab versus Chemotherapy, GHS/QoL (overall population, C5D1): 5.66
- Difference in LS mean change, Cemiplimab versus Chemotherapy, Physical Functioning (overall population, C5D1): 6.74
